Source: ChEMBL document CHEMBL1127280, “Imidazolidinones and pyrazolones as novel ACAT inhibitors: Chemistry and biological activity” (Bioorg Med Chem Lett, 1994)

What was measured:
O-acyltransferase = O-acyltransferase (Oryctolagus cuniculus, UniProt G1SFD9); experiment: In vitro Acyl coenzyme A:cholesterol acyltransferase inhibition by incubation with [14C]oleolyl-CoA and intestinal microsomes isolated from cholesterol-fed rabbits.; parameters: species or system Intestine
Rattus norvegicus = species: Rattus norvegicus; experiment: Cholesterol lowering activity was assessed in rats expressed as percent change in total cholesterol (TC) in cholic acid-cholesterol-peanut oil fed rats; assay type: functional

Sequence of O-acyltransferase (G1SFD9 1-524): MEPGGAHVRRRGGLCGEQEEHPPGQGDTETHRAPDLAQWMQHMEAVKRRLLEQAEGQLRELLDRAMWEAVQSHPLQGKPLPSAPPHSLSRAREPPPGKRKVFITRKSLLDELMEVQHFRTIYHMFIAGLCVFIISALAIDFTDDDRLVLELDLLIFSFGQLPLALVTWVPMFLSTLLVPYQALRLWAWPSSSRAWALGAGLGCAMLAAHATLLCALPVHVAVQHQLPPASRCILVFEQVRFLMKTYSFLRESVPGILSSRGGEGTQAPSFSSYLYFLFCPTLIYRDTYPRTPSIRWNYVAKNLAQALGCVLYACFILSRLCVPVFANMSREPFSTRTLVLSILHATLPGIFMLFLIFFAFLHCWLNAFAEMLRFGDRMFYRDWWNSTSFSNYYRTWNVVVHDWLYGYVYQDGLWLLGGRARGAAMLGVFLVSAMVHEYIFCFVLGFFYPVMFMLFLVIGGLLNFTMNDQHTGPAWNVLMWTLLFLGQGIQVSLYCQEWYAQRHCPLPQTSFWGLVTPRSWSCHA

Row | SMILES | IC50 (O-acyltransferase) [µM] | Change in TC (Rattus norvegicus) [%]
1 | CCCCCCCCCCC1=NN(c2c(C)cccc2C)C(=O)C1 | 5 | –
2 | CCCCCCCC/C=C\CCCCCCCC1=NN(c2ccc(F)cc2F)C(=O)C1 | 5 | –
3 | CCCCCCCC/C=C\CCCCCCCC1=NN(c2ccc(Cl)cc2Cl)C(=O)C1 | 9.9 | –
4 | CC(C)c1cccc(C(C)C)c1N1CN(C(c2ccccc2)c2ccccc2)CC1=O | 1.3 | –
5 | Cc1cccc(C)c1N1N=C(CC(c2ccccc2)c2ccccc2)CC1=O | 50.8 | –
6 | CC(C)c1cccc(C(C)C)c1N1CNC(Cc2ccccc2)C1=O (stereo unspecified) | 5.5 | -9
7 | CC(C)c1cccc(C(C)C)c1N1CN(CC(c2ccccc2)c2ccccc2)CC1=O | 5 | -6

More lines, in order of falling IC50 (O-acyltransferase), values ahead:

Row | IC50 (O-acyltransferase) [µM] | SMILES | Change in TC (Rattus norvegicus) [%]
8 | 22.9 | CCCCCCCC/C=C\CCCCCCCC1=NN(c2c(Cl)cccc2Cl)C(=O)C1 | -18
9 | 5 | CCCCCCCC/C=C\CCCCCCCC1=NN(c2ccc([N+](=O)[O-])cc2[N+](=O)[O-])C(=O)C1 | -26
10 | 5 | CCCCCCCC/C=C\CCCCCCCC1=NN(c2ccc(C)cc2C)C(=O)C1 | -26
11 | 3.9 | CC(C)c1cccc(C(C)C)c1N1CNC(C(c2ccccc2)c2ccccc2)C1=O (stereo unspecified) | –
